Kd data for 18 compounds are collected here from patent US20260325685A1, “Radiopharmaceutical Compositions Targeting Carbonic Anhydrase IX and Uses Thereof” (RayzeBio, Inc., priority 2023, published 2026).

Where only a bound is given, the exact number is not on record here.

Assay [1] concerns the target T1, human CA-XII (Homo sapiens, UniProt O43570).
T1 construct: purchased Creative BioMart CA12-261H
Description: Surface Plasmon Resonance (SPR) binding kinetics to recombinant human CA-XII (Biacore 8K, single-cycle kinetics, 1:1 binding model). The note with it: Chelated Metal: Lu-175, 25° C., pH 7.4, read-out: CAXII KD. In short, it runs like this:
(§1)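 Recombinant human CA-IX or CA-XII captured on streptavidin chips (1200-1800 RU) in PBS-P+, pH 7.4. Single-cycle kinetics over 9 analyte concentrations (100-0.39 nM) with 1% DMSO, 120 s association, 1200 s dissociation, 25° C. Reference- and DMSO-corrected curves fit to 1:1 model for on/off rates.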
On the technique in general: SPR reads the build-up and loss of mass on a sensor chip optically.

Assay [2] has as its target T2, human CA-IX (Homo sapiens, UniProt Q16790).
T2 construct: purchased Acro CA9-H82E3
Description: Surface Plasmon Resonance (SPR) binding kinetics to recombinant human CA-IX (Biacore 8K, single-cycle kinetics, 1:1 binding model). The settings on record: Chelated Metal: Lu-175; SPR, 25° C., pH 7.4; read-out: CAIX KD. In short, it runs like this: as §1

Broadly, the Kd is the constant that tells how readily two partners part at equilibrium.

T1 sequence (O43570 25-354): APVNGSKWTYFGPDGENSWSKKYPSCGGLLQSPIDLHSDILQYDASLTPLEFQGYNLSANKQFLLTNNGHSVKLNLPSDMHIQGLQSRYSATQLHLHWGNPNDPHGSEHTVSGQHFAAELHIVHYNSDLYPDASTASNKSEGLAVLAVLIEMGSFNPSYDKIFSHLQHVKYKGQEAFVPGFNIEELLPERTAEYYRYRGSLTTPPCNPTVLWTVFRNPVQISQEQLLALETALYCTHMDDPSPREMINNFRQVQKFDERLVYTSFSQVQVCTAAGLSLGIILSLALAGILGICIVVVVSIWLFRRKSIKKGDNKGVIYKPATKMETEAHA

For the compound `CC(CCC(=O)N1CCOC[C@H]1C(=O)N[C@@H](CC(=O)N1CCN(C(=O)CN2CCN(CC(=O)O)CCN(CC(=O)O)CCN(CC(=O)O)CC2)C[C@@H]1C(=O)NCCn1cc(C23CC(C(=O)Nc4nnc(S(N)(=O)=O)s4)(C2)C3)nn1)C(N)=O)(c1ccc(O)cc1)c1ccc(O)cc1.[Lu+3]` [Compound 107.19], the Kd in assay [1] is over 10 nM; in assay [2], 1 to 2.5 nM.
In the case of `CC(CCC(=O)N[C@H](CC(=O)N[C@H](CC(=O)N1CCN(C(=O)CN2CCN(CC(=O)O)CCN(CC(=O)O)CCN(CC(=O)O)CC2)C[C@H]1C(=O)NCCn1cc(C23CC(C(=O)Nc4nnc(S(N)(=O)=O)s4)(C2)C3)nn1)C(=O)O)C(=O)O)(c1ccc(O)cc1)c1ccc(O)cc1.[Lu+3]` [Compound 107.21], the Kd in assay [1] was over 10 nM; in assay [2] it was 1 to 2.5 nM.
Take `CC(CCC(=O)N[C@@H](CC(=O)N[C@@H](CC(=O)N1CCN(C(=O)CN2CCN(CC(=O)O)CCN(CC(=O)O)CCN(CC(=O)O)CC2)C[C@H]1C(=O)NCCn1cc(-c2ccc(C(=O)Nc3nnc(S(N)(=O)=O)s3)cc2)nn1)C(=O)O)C(=O)O)(c1ccc(O)cc1)c1ccc(O)cc1.[Lu+3]` [Compound 107.22]: the Kd was over 10 nM in assay [1] and 1 to 2.5 nM in assay [2].
Turning to `CC(CCCC(=O)N1CCC(C(=O)O)(C(=O)NCC(=O)N2CCN(C(=O)CN3CCN(CC(=O)O)CCN(CC(=O)O)CCN(CC(=O)O)CC3)C[C@@H]2C(=O)N[C@@H](Cn2cc(C34CC(C(=O)Nc5nnc(S(N)(=O)=O)s5)(C3)C4)nn2)C(=O)O)CC1)(c1ccc(O)cc1)c1ccc(O)cc1.[Lu+3]` [Compound 107.23], the Kd in assay [1] was over 10 nM; in assay [2], under 1 nM.
For the compound `CC(CCCC(=O)N1CCC(C(=O)O)(C(=O)NCC(=O)N2CCN(C(=O)CN3CCN(CC(=O)O)CCN(CC(=O)O)CCN(CC(=O)O)CC3)C[C@@H]2C(=O)NCCn2cc(C34CCC(C(=O)Nc5nnc(S(N)(=O)=O)s5)(C3)C4)nn2)CC1)(c1ccc(O)cc1)c1ccc(O)cc1.[Lu+3]` [Compound 107.24], the Kd in assay [1] was 2.5 to 10 nM; in assay [2] it was 1 to 2.5 nM.
As to `CN1CCN(C(=O)CCCC(C)(c2ccc(O)cc2)c2ccc(O)cc2)[C@H](C(=O)N[C@@H](CC(=O)N2CCN(C(=O)CN3CCN(CC(=O)O)CCN(CC(=O)O)CCN(CC(=O)O)CC3)C[C@@H]2C(=O)NCCn2cc(C34CC(C(=O)Nc5nnc(S(N)(=O)=O)s5)(C3)C4)nn2)C(=O)O)C1.[Lu+3]` [Compound 107.25], the Kd in assay [1] is over 10 nM; in assay [2] it was under 1 nM.
As to `CC(CCC(=O)N[C@@H](CC(=O)N[C@@H](CC(=O)N1CCN(C(=O)CN2CCN(CC(=O)O)CCN(CC(=O)O)CCN(CC(=O)O)CC2)C[C@H]1C(=O)NCCn1cc(COc2ccc3nc(S(N)(=O)=O)sc3c2)nn1)C(=O)O)C(=O)O)(c1ccc(O)cc1)c1ccc(O)cc1.[Lu+3]` [Compound 107.26], the figures for the Kd in assay [1] and in assay [2] were over 10 nM and under 1 nM, respectively.
`CC(CCC(=O)N[C@@H](CC(=O)N[C@@H](CC(=O)N1CCN(C(=O)CN2CCN(CC(=O)O)CCN(CC(=O)O)CCN(CC(=O)O)CC2)C[C@H]1C(=O)NCCn1cc(C23CC(c4cn5nc(S(N)(=O)=O)sc5n4)(C2)C3)nn1)C(=O)O)C(=O)O)(c1ccc(O)cc1)c1ccc(O)cc1.[Lu+3]` [Compound 107.27]: the Kd in assay [1] and in assay [2] was under 1 nM throughout.
On to `CC(CCC(=O)N[C@@H](CC(=O)N[C@@H](CC(=O)N1CCN(C(=O)CN2CCN(CC(=O)O)CCN(CC(=O)O)CCN(CC(=O)O)CC2)C[C@H]1C(=O)NCCn1cc(-c2ccc(-c3cn4nc(S(N)(=O)=O)sc4n3)cc2)nn1)C(=O)O)C(=O)O)(c1ccc(O)cc1)c1ccc(O)cc1.[Lu+3]` [Compound 107.28], for which the Kd in assay [1] and in assay [2] was under 1 nM throughout.
On to `CC(CCCC(=O)N1CCOC[C@H]1C(=O)N[C@@H](CC(=O)N1CCN(C(=O)CN2CCN(CC(=O)O)CCN(CC(=O)O)CCN(CC(=O)O)CC2)C[C@H]1C(=O)NCCn1cc(C23CC(C(=O)Nc4nnc(S(N)(=O)=O)s4)(C2)C3)nn1)C(=O)O)(c1ccc(O)cc1)c1ccc(O)cc1.[Lu+3]` [Compound 107.29], for which the Kd in assay [1] was over 10 nM; in assay [2], under 1 nM.
As for `CC(CCC(=O)N[C@@H](CC(=O)N[C@@H](CC(=O)N1CCN(C(=O)CN2CCN(CC(=O)O)CCN(CC(=O)O)CCN(CC(=O)O)CC2)C[C@H]1C(=O)NCCn1cc(-c2ccc(C(=O)Nc3nnc(S(N)(=O)=O)s3)c(Cl)c2)nn1)C(=O)O)C(=O)O)(c1ccc(O)cc1)c1ccc(O)cc1.[Lu+3]` [Compound 107.30], the Kd was 1 to 2.5 nM in assay [1] and under 1 nM in assay [2].
As for `CC(CCCC(=O)N1CCC(C#N)(C(=O)NCC(=O)N2CCN(C(=O)CN3CCN(CC(=O)O)CCN(CC(=O)O)CCN(CC(=O)O)CC3)C[C@@H]2C(=O)NCCn2cc(C34CC(C(=O)Nc5nnc(S(N)(=O)=O)s5)(C3)C4)nn2)CC1)(c1ccc(O)cc1)c1ccc(O)cc1.[Lu+3]` [Compound 107.31], the Kd in assay [1] is over 10 nM; in assay [2] it was 1 to 2.5 nM.
As to `CC1(C)CN(C(=O)CCCC(C)(c2ccc(O)cc2)c2ccc(O)cc2)[C@H](C(=O)N[C@@H](CC(=O)N2CCN(C(=O)CN3CCN(CC(=O)O)CCN(CC(=O)O)CCN(CC(=O)O)CC3)C[C@@H]2C(=O)NCCn2cc(C34CC(C(=O)Nc5nnc(S(N)(=O)=O)s5)(C3)C4)nn2)C(=O)O)CO1.[Lu+3]` [Compound 107.32], the Kd in assay [1] is over 10 nM; in assay [2], under 1 nM.
The matching figures for `CC(CCCC(=O)N1CCC2(CC2)C[C@H]1C(=O)N[C@@H](CC(=O)N1CCN(C(=O)CN2CCN(CC(=O)O)CCN(CC(=O)O)CCN(CC(=O)O)CC2)C[C@@H]1C(=O)NCCn1cc(C23CC(C(=O)Nc4nnc(S(N)(=O)=O)s4)(C2)C3)nn1)C(=O)O)(c1ccc(O)cc1)c1ccc(O)cc1.[Lu+3]` [Compound 107.33]: over 10 nM and under 1 nM.
With `CNC(=O)C1(C(=O)NCC(=O)N2CCN(C(=O)CN3CCN(CC(=O)O)CCN(CC(=O)O)CCN(CC(=O)O)CC3)C[C@@H]2C(=O)NCCn2cc(C34CC(C(=O)Nc5nnc(S(N)(=O)=O)s5)(C3)C4)nn2)CCN(C(=O)CCCC(C)(c2ccc(O)cc2)c2ccc(O)cc2)CC1.[Lu+3]` [Compound 107.34], the Kd in assay [1] was over 10 nM; in assay [2] it was under 1 nM.
The matching figures for `Cc1cc(C(=O)Nc2nnc(S(N)(=O)=O)s2)ccc1-c1cn(CCNC(=O)[C@@H]2CN(C(=O)CN3CCN(CC(=O)O)CCN(CC(=O)O)CCN(CC(=O)O)CC3)CCN2C(=O)C[C@H](NC(=O)C[C@H](NC(=O)CCC(C)(c2ccc(O)cc2)c2ccc(O)cc2)C(=O)O)C(=O)O)nn1.[Lu+3]` [Compound 107.35]: over 10 nM and under 1 nM.
On to `CC(CCC(=O)N[C@@H](CC(=O)N[C@@H](CC(=O)N1CCN(C(=O)CN2CCN(CC(=O)O)CCN(CC(=O)O)CCN(CC(=O)O)CC2)C[C@H]1C(=O)NCCn1cc(-c2ccc(C(=O)Nc3nnc(S(N)(=O)=O)s3)cc2Cl)nn1)C(=O)O)C(=O)O)(c1ccc(O)cc1)c1ccc(O)cc1.[Lu+3]` [Compound 107.36], for which the Kd in assay [1] is over 10 nM; in assay [2], under 1 nM.
`NC(=O)C1(C(=O)NCC(=O)N2CCN(C(=O)CN3CCN(CC(=O)O)CCN(CC(=O)O)CCN(CC(=O)O)CC3)C[C@H]2C(=O)NCCn2cc(C34CC(C(=O)Nc5nnc(S(N)(=O)=O)s5)(C3)C4)nn2)CCN(C(=O)Cn2nc(-c3ccc(O)cc3)c3ccc(O)cc32)CC1.[Lu+3]` [Compound 107.37]: the Kd in assay [1] and in assay [2] was over 10 nM throughout.
